Measured values from patent publication US5656603A (Loyola University of Chicago, priority 1995, dated 1997).

What was measured:
endopeptidase 24.11 = molecular target: T1, endopeptidase 24.11 (Bos taurus, UniProt E1BPL8); test: Specificity of apstatin: endopeptidase 24.11; type: biochemical; conditions: detergent extract of bovine lung; Suc-Ala-Ala-Phe-7-amido-4-methyl-coumarin, pH 6.8, HPLC-1
T1 construct: Unless otherwise indicated, the source of each enzyme activity was a detergent extract of bovine lung; from tissue; host or cells: detergent extract of bovine lung
T1 sequence (E1BPL8 1-750): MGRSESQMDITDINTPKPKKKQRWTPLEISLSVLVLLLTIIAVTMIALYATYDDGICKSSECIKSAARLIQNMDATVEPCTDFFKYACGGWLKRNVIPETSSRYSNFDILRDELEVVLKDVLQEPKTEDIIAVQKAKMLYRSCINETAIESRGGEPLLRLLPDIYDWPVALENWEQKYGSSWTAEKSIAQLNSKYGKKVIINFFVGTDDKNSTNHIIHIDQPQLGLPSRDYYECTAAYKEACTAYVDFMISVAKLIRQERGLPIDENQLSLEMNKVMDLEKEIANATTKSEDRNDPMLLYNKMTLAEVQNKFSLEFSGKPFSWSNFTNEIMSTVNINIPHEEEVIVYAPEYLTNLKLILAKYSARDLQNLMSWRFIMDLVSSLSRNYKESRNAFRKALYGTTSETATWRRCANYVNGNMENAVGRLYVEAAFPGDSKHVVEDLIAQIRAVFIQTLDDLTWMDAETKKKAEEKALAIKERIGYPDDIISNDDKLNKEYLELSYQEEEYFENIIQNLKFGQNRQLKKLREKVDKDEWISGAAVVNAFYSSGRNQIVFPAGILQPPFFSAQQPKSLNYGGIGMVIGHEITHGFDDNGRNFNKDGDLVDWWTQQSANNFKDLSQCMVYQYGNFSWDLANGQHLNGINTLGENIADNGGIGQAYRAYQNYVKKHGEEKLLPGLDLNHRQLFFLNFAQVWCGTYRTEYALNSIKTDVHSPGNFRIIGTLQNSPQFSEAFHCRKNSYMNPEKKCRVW
Method: Specificity of Apstatin--Apstatin was assayed for its ability to inhibit several other peptidases. […] Unless otherwise indicated, the source of each enzyme activity was a detergent extract of bovine lung prepared as described in (12-13). Activities were determined by a modification of the fluorescent assay described above (indicated by "FLUO") or by HPLC separation and quantitation of reaction products using the method described in (12) (method "HPLC-1") or the method described below (method "HPLC-2"). […]

[1] = molecular target: T2, partially purified human lung membrane-bound aminopeptidase P (Homo sapiens, UniProt O43895); test: Aminopeptidase P inhibition, release of arginine from Arg-Pro-Pro (fluorescent assay); type: biochemical
T2 construct: from tissue; host or cells: human lung microsomes
Method: The IC50 of the compound of the present invention in relation to aminopeptidase P was also determined. […] The specificity of the compound of the present invention for other aminopeptidases was similarly determined as described in the Experimental Procedures herein.
Enzymes--Membrane-bound aminopeptidase P was purified to homogeneity from bovine lung (14) and from rat lung. Partially purified membrane-bound aminopeptidase P from human lung was obtained by treatment of lung microsomes with phosphatidylinositol-specific phospholipase C (B. thuringiensis) (ICN, Costa Mesa, Calif.) followed by centrifugation as described previously (14). Membrane dipeptidase was purified from rat lung microsomes (manuscript in preparation). Recombinant E. coli aminopeptidase P (22) and purified lamb kidney prolyl oligopeptidase (23) were generally supplied by Dr. Tadashi Yoshimoto (Nagasaki University). Purified porcine kidney prolidase and purified porcine kidney aminopeptidase M was obtained from Sigma (St. Louis, Mo.).
Enzyme Kinetics--Aminopeptidase P activity was determined by measuring the release of arginine from Arg-Pro-Pro by a fluorescent assay described previously (14). […] Each mixture was run in duplicate. Aliquots were removed from each incubation mixture at various times and assayed for the amount of arginine present to determine the reaction velocity. In general, reaction velocities were calculated from data representing less than 20% cleavage of substrate. Ki and Ki ' (=αKi) were determined from plots of 1/v versus concentration of inhibitor "i" (26) and S/v versus concentration of inhibitor "i" (27), respectively. These parameters were also determined from the slope replot and 1/v-intercept replot, respectively, of the 1/v versus 1/S plot (28). […] The values from the two treatments of the data were averaged for each experiment. Experiments for each enzyme preparation were performed twice and the results averaged.

T2 sequence (O43895 22-674): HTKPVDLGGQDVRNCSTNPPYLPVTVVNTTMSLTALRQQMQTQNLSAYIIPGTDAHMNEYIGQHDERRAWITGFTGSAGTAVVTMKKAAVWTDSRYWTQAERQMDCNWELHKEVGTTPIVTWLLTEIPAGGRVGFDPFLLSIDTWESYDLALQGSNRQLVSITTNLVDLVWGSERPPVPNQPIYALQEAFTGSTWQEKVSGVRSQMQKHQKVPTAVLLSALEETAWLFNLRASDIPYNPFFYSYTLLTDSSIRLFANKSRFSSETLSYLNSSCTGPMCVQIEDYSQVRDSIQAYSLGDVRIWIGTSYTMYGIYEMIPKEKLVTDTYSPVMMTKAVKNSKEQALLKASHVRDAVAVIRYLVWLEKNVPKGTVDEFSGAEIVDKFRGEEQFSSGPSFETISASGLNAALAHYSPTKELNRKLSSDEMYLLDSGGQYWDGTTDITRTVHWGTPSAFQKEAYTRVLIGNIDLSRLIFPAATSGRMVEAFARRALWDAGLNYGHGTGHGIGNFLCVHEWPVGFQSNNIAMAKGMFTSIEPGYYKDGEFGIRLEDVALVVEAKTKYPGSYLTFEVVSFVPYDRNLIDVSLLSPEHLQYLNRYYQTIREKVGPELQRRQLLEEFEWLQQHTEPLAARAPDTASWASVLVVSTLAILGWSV

Compound: C[C@H](NC(=O)[C@@H]1CCCN1C(=O)[C@@H]1CCCN1C(=O)[C@@H](O)[C@H](N)Cc1ccccc1)C(N)=O [apstatin, N-[(2S, 3R)-3-amino-2-hydroxy-4-phenylbutanoyl]-L-prolyl-L-prolyl-Lalaninamide]
- IC50 (endopeptidase 24.11): > 800 µM
- type of inhibition ([1]; human lung aminopeptidase P): linear mixed-type
- α (αKi = equilibrium constant for enzyme-inhibitor binding at infinite substrate concentration) ([1]; human lung, partially purified membrane-bound form): 11.
